# Assays:
# [1] = test system: PANC-1 cells; details: PANC-1, 48 h, MTT
# [2] = test system: TB33117 cells; details: TB33117, 48 h, MTT
# [3] = test system: MiaPaCa-2 cells; details: MiaPaCa-2, 48 h, MTT
# [4] = test system: Skp2; assay: Skp2 immunohistochemical staining of xenografted tumors; format: in vivo, Scid mice
# [5] = test system: pancreatic cancer (PC) cells; assay: MTT proliferation of human and murine pancreatic cancer cells (overall statements, combinations); format: cell-based; details: MiaPaCa-2, PANC-1, TB33117, KPCWT942
# [6] = test system: MiaPaCa-2 human pancreatic cancer cells xenograft; assay: Subcutaneous MiaPaCa-2 xenograft tumor growth in Scid mice; format: in vivo
# [7] = test system: PANC-1 cells; assay: Cell cycle by propidium iodide flow cytometry; format: cell-based, human; details: PANC-1, 0.2 μM, 24 h
# Description: (§1) ATO inhibited PC cell growth by stimulation of apoptosis. The effects of PhAs-LHP on cell cycle and cell death were determined by flow cytometry analysis. In MiaPaCa-2 cells, after 48 h treatment, ATO induced about 15% cell death at 0.5 μM while PhAs-LHP (0.05 μM) caused 24% cell death at ten times lower concentrations than ATO (Figure 4A). Likewise, after 24 h treatment, ATO (2 μM) and PhAs-LHP (0.2 μM) induced cell cycle arrest at the G2/M phase in PANC-1 cells (Figure 4B).
# (§2) Figure 4 PhAs-LHP induced cell death and cell cycle arrest more potently than ATO. MiaPaCa-2 cells were treated with ATO (0.5 μM) or PhAs-LHP (0.05 μM) for 48 h (A). PANC-1 cells were treated with ATO (2 μM) or PhAs-LHP (0.2 μM) for 24 h (B). Both MiaPaCa-2 and PANC-1 cells were then stained with propidium iodide (PI) and subjected to flow cytometry analysis. Numbers indicate the percent of PI-negative cells of a total of 10,000 cells analyzed per condition (A). TEXT PRINTED IN THE PICTURE: (A) ATO: % PI Negative 85.4 (0.5 μM) | (A) PhAs-LHP: % PI Negative 75.9 (0.05 μM) | (B) ATO: %G1 28.9 (2 μM); %S 16.7 (2 μM); %G2 48.9 (2 μM) | (B) PhAs-LHP: %G1 39.3 (0.2 μM); %S 19.8 (0.2 μM); %G2 38.6 (0.2 μM)
# Cell death and cell cycle were assayed using propidium iodide (PI) and flow cytometry. Cells were treated with ATO or PhAs-LHP with the concentrations indicated in the text for 48 h for measuring cell death or 24 h for determining cell cycle arrest. All floating and adhering cells were then trypsinized and washed two times with cold phosphate-buffered saline (PBS). For cell death assays, cells were harvested and resuspended in PBS containing 1 μg/mL PI. For cell cycle analysis, cells were harvested and resuspended in PBS containing 0.1% Triton X-100, 50 μg/mL PI, and 10 μg/mL RNaseA (Thermo Scientific, Melbourne, Australia) and then incubated at 37 °C for 15 min. Samples were processed with the FACSymphony A3 flow cytometer (BD Biosciences), and the acquired data were analyzed with the FlowJo software (BD Biosciences, San Jose, CA, USA).
# [8] = test system: MiaPaCa-2 cells; assay: Cell death by propidium iodide flow cytometry; format: cell-based, human; details: MiaPaCa-2, 0.05 μM, 48 h
# Description: as §1
# as §2, with “TEXT PRINTED IN THE PICTURE: (A) ATO: % PI Negative 85.4 (0.5 μM) | (A) PhAs-LHP: % PI Negative 75.9 (0.05 μM) | (B) ATO: %G1 28.9 (2 μM); %S 16.7 (2 μM); %G2 48.9 (2 μM) | (B) PhAs-LHP: %G1 39.3 (0.2 μM); %S 19.8 (0.2 μM); %G2 38.6 (0.2 μM)” left out
# Cell death and cell cycle were assayed using propidium iodide (PI) and flow cytometry. […] Samples were processed with the FACSymphony A3 flow cytometer (BD Biosciences), and the acquired data were analyzed with the FlowJo software (BD Biosciences, San Jose, CA, USA).
# [9] = in vivo
# [10] = mouse, in vivo
# [11] = test system: normal pancreatic epithelial cell line (HPDE); format: cell-based
# [12] = read-out: IC50 inhibition of PC cell proliferation
compound,measurement,setting,value
"CAYHRLRRC [LHP, reference compound]",effect on cell proliferation,[1],did not affect the proliferation
same,effect on cell proliferation,[2],did not affect the proliferation
same,effect on cell proliferation,[3],did not affect the proliferation
"Nc1ccn([C@@H]2O[C@H](CO)[C@@H](O)C2(F)F)c(=O)n1 [Gem, gemcitabine, reference compound]",levels of Skp2 in tumors,"[4]; 50 mg/kg i.p., vs non-treatment control, IHC",reduced
same,effect of pre-treatment on inhibition of PC cell growth by ATO,"[5]; 24 h pre-incubation with Gem, then 48 h ATO",enhanced the inhibitory effects of ATO
same,"PC growth (tumor volume, tumor weight)","[6]; 50 mg/kg i.p. every 4 days, alone, vs control",significantly decreased PC growth
CC(=O)N[C@H]1CS[As](c2ccccc2)SC[C@@H](C(N)=O)NC(=O)[C@H](CCCNC(=N)N)NC(=O)[C@H](CCCNC(=N)N)NC(=O)[C@H](CC(C)C)NC(=O)[C@H](CCCNC(=N)N)NC(=O)[C@H](Cc2c[nH]cn2)NC(=O)[C@H](Cc2ccc(O)cc2)NC(=O)[C@H](C)NC1=O (some centres unmarked) [PhAs-LHP],%G1,[7],39.3%
same,%G2,[7],38.6%
same,%S,[7],19.8%
same,IC50,[1]; [12],210 ± 30 nM
same,"levels of Skp2 in tumors, combination with gemcitabine","[4]; mouse, in vivo",did not further reduce the expression of Skp2
same,levels of Skp2 in tumors,"[4]; mouse, in vivo, ip",reduced
same,IC50,[2]; [12],200 ± 50 nM
same,cell death,[8],24%
same,% PI Negative,"[8]; of 10,000 cells",75.9%
same,toxicity (mouse body weight),[9],No toxicity was observed
same,"arsenic (As) in brain, heart, liver and kidney",[10],not detected
same,reduction of proliferation of HPDE,[11],10%
same,IC50,[3]; [12],120 ± 100 nM
same,further reduction in tumor volumes and weight on top of Gem,"[6]; mouse, in vivo",further decreased tumor volumes
same,relative tumor growth (Day 7 volume = 100%),"[6]; mouse, in vivo",significantly slower than of Gem plus PAO
same,"pancreatic tumor growth (tumor volume, tumor weight)","[6]; mouse, in vivo, ip",significantly suppressed pancreatic tumor growth
Cc1nc(Nc2[nH]nc3c2CN(C(=O)N[C@H](CN(C)C)c2ccccc2)C3(C)C)c2sccc2n1 [PF-3758309],effect of pre-treatment on inhibition of PC cell growth by ATO,"[5]; 24 h pre-incubation with PF-3758309, then 48 h ATO",enhanced the inhibitory effects of ATO
